One may read the IC50 as the point on the concentration scale where inhibition reaches its midpoint.

The target of test [1] is T1, hPPARα (Homo sapiens, UniProt Q07869).
T1 construct: fragments of DNA amplified by PCR corresponding to the DEF domains of the human PPARα, PPARγ PPARδ nuclear receptors; expressed in transfected cells; host or cells: COS-7 (monkey kidney fibroblast line)
T1 sequence (Q07869 239-466 limits assumed): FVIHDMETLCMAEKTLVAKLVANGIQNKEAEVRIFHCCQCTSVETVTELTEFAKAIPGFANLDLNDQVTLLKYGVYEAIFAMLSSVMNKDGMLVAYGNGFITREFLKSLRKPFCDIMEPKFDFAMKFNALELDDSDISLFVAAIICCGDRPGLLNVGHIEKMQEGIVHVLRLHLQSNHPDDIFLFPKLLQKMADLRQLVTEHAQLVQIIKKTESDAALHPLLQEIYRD
The experiment in a line: Gal4-hPPARα chimera transactivation in COS-7 cells (luciferase). The class given is cell-based. As to conditions: induction factor standardised to an internal reference, read-out: % hGal4-PPAR transactivation (10 μM) alpha. As for the experimental part: (§1) The PPAR activation was evaluated in vitro on a monkey kidney fibroblast line (COS-7) by measuring the transcriptional activity of chimeras constituted of the DNA binding domain of the Gal4 transcription factor of yeast and of the binding domain to the ligand of the different PPARs. The compounds were tested at doses between 0.01 and 100 μM on Gal4-PPARα, γ, δ chimeras. The induction factor (ratio between the luminescence induced by the compound and the luminescence induced by the control) was measured for each condition: the higher this factor, the more the compound has PPAR-activating properties.
(§2) The COS-7 cells from ATCC were cultivated in a DMEM medium supplemented with 10% (vol/vol) of foetal calf serum, 100 U/ml penicillin (Gibco, Paisley, UK) and 2 mM L-Glutamine (Gibco, Paisley, UK). The cells were incubated at 37° C. in a humid atmosphere containing 5% CO2.
(§3) The Gal4(RE)_TkpGL3, pGal4-hPPARα, pGal4-hPPARγ, pGal4-hPPARδ and pGal4-φ plasmids have been described in the literature (Raspe, Madsen et al. 1999). The pGal4-hPPARα, pGal4-hPPARγ and pGal4-hPPARδ constructs were obtained by cloning in the pGal4-φ vector of fragments of DNA amplified by PCR corresponding to the DEF domains of the human PPARα, PPARγ PPARδ nuclear receptors.
(§4) COS-7 cells were plated in 96 wells plates (5×10^4 cells/well) and transfected, in the presence of 10% foetal calf serum and 150 ng DNA per well, with a pGal4-PPAR/Gal4(RE)_TkpGL3 ratio of 1/10. The cells were then incubated for 24 hours with the compounds to be tested, without serum. At the end of the experiment, the cells were lysed and the luciferase activities were determined by means of Steady Glow Luciferase (Promega) according to the supplier's recommendations.
(§5) The inventive compounds were tested at 10 μM on the 3 PPAR isoforms. The results obtained are detailed in table (1). The transactivation measured is expressed as a response ratio versus an internal reference for each of the isoforms.
(§6) The compounds were tested at 10 μM on the Gal4-PPARα, γ, δ chimeras. The induction factor, i.e. the ratio between the luminescence induced by the compound and the luminescence induced by the control, was measured for each condition. It was then standardised in comparison to an internal reference and the results were then expressed in percentages : the higher the activation percentage, the more the compound has PPAR-activating properties.

Test [2] concerns the target T2, hPPARγ (Homo sapiens, UniProt P37231).
T2 construct: fragments of DNA amplified by PCR corresponding to the DEF domains of the human PPARα, PPARγ PPARδ nuclear receptors; expressed in transfected cells; host or cells: COS-7 (monkey kidney fibroblast line)
T2 sequence (P37231 238-503 limits assumed): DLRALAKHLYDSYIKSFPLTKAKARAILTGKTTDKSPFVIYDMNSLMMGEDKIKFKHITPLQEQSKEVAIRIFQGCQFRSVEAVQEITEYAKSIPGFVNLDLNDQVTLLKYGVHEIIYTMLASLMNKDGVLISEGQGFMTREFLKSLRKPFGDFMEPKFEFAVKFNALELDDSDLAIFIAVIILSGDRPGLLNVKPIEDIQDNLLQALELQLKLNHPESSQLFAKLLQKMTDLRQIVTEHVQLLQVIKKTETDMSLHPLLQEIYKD
The experiment in a line: Gal4-hPPARγ chimera transactivation in COS-7 cells (luciferase). In kind it is cell-based. Conditions: induction factor standardised to an internal reference, read-out: % hGal4-PPAR transactivation (10 μM) gamma. As for the experimental part: as §1, §2, §3, §4, §5, §6

For test [3], the target named is T3, hPPARδ (Homo sapiens, UniProt Q03181).
T3 construct: fragments of DNA amplified by PCR corresponding to the DEF domains of the human PPARα, PPARγ PPARδ nuclear receptors; expressed in transfected cells; host or cells: COS-7 (monkey kidney fibroblast line)
T3 sequence (Q03181 211-439 limits assumed): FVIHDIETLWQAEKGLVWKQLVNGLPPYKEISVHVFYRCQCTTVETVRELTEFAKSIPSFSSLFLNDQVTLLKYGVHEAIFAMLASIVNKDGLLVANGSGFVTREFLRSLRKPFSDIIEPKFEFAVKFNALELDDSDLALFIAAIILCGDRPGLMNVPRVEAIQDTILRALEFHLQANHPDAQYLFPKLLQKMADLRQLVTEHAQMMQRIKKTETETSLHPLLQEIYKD
Kind of test: Gal4-hPPARδ chimera transactivation in COS-7 cells (luciferase). In kind it is cell-based. Conditions: induction factor standardised to an internal reference, read-out: % hGal4-PPAR transactivation (10 μM) delta. As for the experimental part:
as §1, §2, §3, §4, §5, §6

Test [4] addresses T4, ATP-dependent potassium channels (K+ATP) (Rattus norvegicus, UniProt Q09429).
T4 construct: the potassium channels derive from a rat's cerebral cortex; tissue CEREP; host or cells: rat cerebral cortex
Kind of test: [3H]glibenclamide binding to ATP-dependent potassium channels of rat cerebral cortex. As to conditions: for inhibition at 0.3 µM: 1 h, 300 nM, specific displacement of [3H]glibenclamide 0.1 nM, read-out: KATP binding (300 nM). How it is done: The results shown reflect the specific affinity of the inventive compounds on the ATP-dependent (K^+ATP) potassium channels. The specific binding measured corresponds to the difference between the total binding and the non-specific binding determined in the presence of an excess of non-marked reference ligand (glibenclamide 1 μM). The inventive compounds were tested at doses between 3 and 300 nM: the higher the percentage measured, the stronger the affinity of the compound for the ATP-dependent potassium channels.
The binding test was carried out at CEREP (Celle L'Evescault, France (86)) according to a protocol inspired by Angel et al. (Angel and Bidet 1991): the potassium channels derive from a rat's cerebral cortex and the reference compound is [^3H]glibenclamide at 0.1 nM. The protocol consists of incubation at 22° C. for one hour.
Background: In a radioligand displacement assay an active substance lowers the binding of a labelled ligand.

T4 sequence (Q09429 whole entry): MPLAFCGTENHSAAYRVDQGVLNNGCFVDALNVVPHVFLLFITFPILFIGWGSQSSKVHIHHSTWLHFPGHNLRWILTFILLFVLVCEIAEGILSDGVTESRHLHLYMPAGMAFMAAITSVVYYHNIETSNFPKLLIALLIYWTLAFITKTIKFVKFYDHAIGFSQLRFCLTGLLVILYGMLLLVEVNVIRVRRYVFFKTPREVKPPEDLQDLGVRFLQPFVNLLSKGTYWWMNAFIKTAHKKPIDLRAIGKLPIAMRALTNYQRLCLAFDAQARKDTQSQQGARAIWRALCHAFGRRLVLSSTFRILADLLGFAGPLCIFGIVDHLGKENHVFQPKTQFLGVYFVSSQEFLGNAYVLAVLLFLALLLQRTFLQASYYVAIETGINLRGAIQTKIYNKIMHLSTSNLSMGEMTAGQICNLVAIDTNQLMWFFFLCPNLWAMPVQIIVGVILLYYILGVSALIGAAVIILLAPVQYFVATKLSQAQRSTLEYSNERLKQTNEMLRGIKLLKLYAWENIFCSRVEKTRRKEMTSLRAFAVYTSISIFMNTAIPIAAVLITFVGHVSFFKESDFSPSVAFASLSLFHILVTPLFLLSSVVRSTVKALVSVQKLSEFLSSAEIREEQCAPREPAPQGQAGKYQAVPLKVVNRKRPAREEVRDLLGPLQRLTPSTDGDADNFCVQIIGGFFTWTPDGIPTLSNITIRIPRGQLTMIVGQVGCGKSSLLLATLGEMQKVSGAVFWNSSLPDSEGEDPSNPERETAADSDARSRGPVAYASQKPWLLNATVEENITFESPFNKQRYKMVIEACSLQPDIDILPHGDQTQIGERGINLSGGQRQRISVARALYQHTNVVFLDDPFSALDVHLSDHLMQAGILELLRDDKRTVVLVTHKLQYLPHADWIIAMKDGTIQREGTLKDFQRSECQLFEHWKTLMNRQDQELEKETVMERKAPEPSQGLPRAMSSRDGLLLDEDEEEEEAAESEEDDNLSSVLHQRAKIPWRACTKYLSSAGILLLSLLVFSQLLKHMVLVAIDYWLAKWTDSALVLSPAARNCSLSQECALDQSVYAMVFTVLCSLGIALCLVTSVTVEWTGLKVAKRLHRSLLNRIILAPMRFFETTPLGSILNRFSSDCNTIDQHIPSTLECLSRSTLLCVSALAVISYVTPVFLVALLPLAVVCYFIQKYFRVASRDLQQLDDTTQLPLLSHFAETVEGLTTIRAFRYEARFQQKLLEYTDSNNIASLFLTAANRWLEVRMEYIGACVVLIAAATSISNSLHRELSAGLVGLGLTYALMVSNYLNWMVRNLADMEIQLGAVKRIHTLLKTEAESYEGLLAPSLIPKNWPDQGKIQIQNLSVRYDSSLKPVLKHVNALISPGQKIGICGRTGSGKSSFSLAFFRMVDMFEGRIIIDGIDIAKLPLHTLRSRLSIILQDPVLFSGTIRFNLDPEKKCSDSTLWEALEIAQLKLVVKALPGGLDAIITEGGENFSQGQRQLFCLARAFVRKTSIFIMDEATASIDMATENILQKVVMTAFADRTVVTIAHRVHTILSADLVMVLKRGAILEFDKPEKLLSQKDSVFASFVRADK
T4 sequence (P70673 whole entry partner): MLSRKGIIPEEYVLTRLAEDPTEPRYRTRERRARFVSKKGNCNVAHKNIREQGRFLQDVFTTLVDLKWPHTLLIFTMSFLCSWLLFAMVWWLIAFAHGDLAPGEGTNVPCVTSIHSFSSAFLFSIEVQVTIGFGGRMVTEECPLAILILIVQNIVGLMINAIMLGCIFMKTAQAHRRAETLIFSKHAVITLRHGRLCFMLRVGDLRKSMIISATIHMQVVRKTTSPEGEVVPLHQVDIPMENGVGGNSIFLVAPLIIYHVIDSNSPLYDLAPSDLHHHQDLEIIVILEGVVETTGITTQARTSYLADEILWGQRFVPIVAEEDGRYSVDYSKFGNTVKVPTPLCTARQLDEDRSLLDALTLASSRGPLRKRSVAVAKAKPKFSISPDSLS

As to `CC(C)(Oc1ccc(CC(=O)NC(Cc2ccccc2)c2ccccc2N2CCCCC2)cc1)C(=O)O` (stereo not shown) [Compound 7, 2-[4-[1-(2-phenyl-1-(2-(1-piperidinyl)phenyl)ethyl)aminocarbonylmethyl]phenoxy]-2-methylpropanoic acid], the activation at 10 µM in test [1] was 40%; in test [2], 34%; in test [3], below 10%. Besides, the inhibition at 0.3 µM in test [4] was 71%.

Regarding `CCCCC(NC(=O)Cc1ccc(OC(C)(C)C(=O)O)cc1)c1ccccc1N1CCCCC1` (stereo not shown) [Compound 10, 2-[4-[1-(1-(2-(1-piperidinyl)phenyl)pentyl)aminocarbonylmethyl]phenoxy]-2-methylpropanoic acid], the activation at 10 µM in test [1] was 11%; in test [2], 49%; in test [3], below 10%. The IC50 in test [4] (FIG. 2) worked out at 0.063 µM.

Turning to `CC(C)CC(NC(=O)Cc1ccc(OC(C)(C)C(=O)O)cc1)c1ccc(C(F)(F)F)cc1N1CCCCC1` (stereo not shown) [Compound 21, 2-[4-[1-(3-methyl-1-(2-(1-piperidinyl)-4-(trifluoromethyl)phenyl)butyl)aminocarbonylmethyl]phenoxy]-2-methylpropanoic acid], the figures for the activation at 10 µM in test [1], in test [2] and in test [3] were below 10%, 25% and 24%, respectively. In addition, in test [4], the inhibition at 0.3 µM amounted to 68%.

Turning to `CC(C)CC(NC(=O)Cc1ccc(OCCCC(C)(C)C(=O)O)cc1)c1ccccc1N1CCCCC1` (stereo not shown) [Compound 28, 5-[4-[1-(3-methyl-1-(2-(1-piperidinyl)phenyl)butyl)aminocarbonylmethyl]phenoxy]-2,2-dimethylpentanoic acid], the values for the activation at 10 µM in test [1], in test [2] and in test [3] were 35%, 17% and below 10%, respectively. Moreover, the inhibition at 0.3 µM in test [4] came out at 30%.

In the case of `CC(C)CC(C(=O)NCc1ccc(OC(C)(C)C(=O)O)cc1)c1ccccc1N1CCCCC1` (stereo not shown) [Compound 32, 2-[4-[1-(3-methyl-1-(2-(1-piperidinyl)phenyl)butyl)carbonylaminomethyl]phenoxy]-2-methylpropanoic acid], the activation at 10 µM is below 10% in test [1], 25% in test [2] and below 10% in test [3]. For the same molecule, in test [4], the inhibition at 0.3 µM amounted to 93%.

For `CCCCC(NC(=O)Cc1ccc(OC(C)(C)C(=O)O)cc1)c1ccc(Br)cc1N1CCCCC1` (stereo not shown) [Compound 33, 2-[4-[1-(1-(2-(1-piperidinyl)-4-(bromo)phenyl)pentyl)aminocarbonylmethyl]phenoxy]-2-methylpropanoic acid], the activation at 10 µM in test [1] is below 10%; in test [2], 42%; in test [3] it was 23%. Besides, the inhibition at 0.3 µM in test [4] was 51%.

Regarding `CC(C)CC(NC(=O)C(C)c1ccc(OC(C)(C)C(=O)O)cc1)c1ccccc1N1CCCCC1` (stereo not shown) [Compound 34, 2-[4-[1-methyl-1-[1-(3-methyl-1-(2-(1-piperidinyl)phenyl)butyl)aminocarbonyl]methyl]phenoxy]-2-methylpropanoic acid], the activation at 10 µM in test [1] is below 10%; in test [2], 30%; in test [3], below 10%. Besides, the inhibition at 0.3 µM in test [4] worked out at 81%.

Take `CCCCC(NC(=O)Cc1ccc(OC(C)(C)C(=O)O)cc1)c1cccc(F)c1N1CCCCC1` (stereo not shown) [Compound 45, 2-[4-[1-(1-(3-fluoro-2-(1-piperidinyl)phenyl)pentyl)aminocarbonylmethyl]phenoxy]-2-methylpropanoic acid]: the activation at 10 µM in test [1] was 31%; in test [2] it was 62%; in test [3], below 10%. The inhibition at 0.3 µM in test [4] is 66%.

Consider `CCCCC(NC(=O)Cc1ccccc1OCCCC(C)(C)C(=O)O)c1ccccc1N1CCCCC1` (stereo not shown) [Compound 53, 5-[2-[1-(1-(2-(1-piperidinyl)phenyl)pentyl)aminocarbonylmethyl]phenoxy]-2,2-dimethylpentanoic acid], for which the activation at 10 µM in test [1] was below 10%; in test [2] it was 40%; in test [3], below 10%. Also, in test [4], the inhibition at 0.3 µM was 25%.

For `CCCCC(NC(=O)Cc1ccc(OC(C)(C)C(=O)O)cc1)c1ccccc1OC` (stereo not shown) [Compound 54, 2-[4-[1-(1-(2-(methoxy)phenyl)pentyl)aminocarbonylmethyl]phenoxy]-2-methylpropanoic acid], the activation at 10 µM is below 10% in test [1], 30% in test [2] and below 10% in test [3]. In addition, the inhibition at 0.3 µM in test [4] was 79%.

Take `Cc1cccc(CC(NC(=O)Cc2ccc(OC(C)(C)C(=O)O)cc2)c2ccccc2N2CCCCC2)c1` (stereo not shown) [Compound 55, 2-[4-[1-(2-(3-methylphenyl)-1-(2-(1-piperidinyl)phenyl)ethyl)aminocarbonylmethyl]phenoxy]-2-methylpropanoic acid]: the values for the activation at 10 µM in test [1], in test [2] and in test [3] were below 10%, 33% and below 10%, respectively. Moreover, the inhibition at 0.3 µM in test [4] was 27%.

In the case of `CC(C)CC(NC(=O)Cc1ccc(OCCCCC(C)(C)C(=O)O)cc1)c1ccccc1N1CCCCC1` (stereo not shown) [Compound 57, 6-[4-[1-(3-methyl-1-(2-(1-piperidinyl)phenyl)butyl)aminocarbonylmethyl]phenoxy]-2,2-dimethylhexanoic acid], the activation at 10 µM is 29% in test [1], below 10% in test [2] and below 10% in test [3]. Besides, in test [4], the inhibition at 0.3 µM was 18%.

Regarding `CC(C)CC(NC(=O)Cc1ccc(OC(C)(C)C(=O)NS(=O)(=O)C(F)(F)F)cc1)c1ccccc1N1CCCCC1` (stereo not shown) [Compound 59, N-[trifluoromethylsulfonyl]-2-[4-[1-(3-methyl-1-(2-(1-piperidinyl)phenyl)butyl)aminocarbonylmethyl]phenoxy]-2-methylpropanamide], the activation at 10 µM was 22% in test [1], below 10% in test [2] and below 10% in test [3]. Besides, in test [4], the inhibition at 0.3 µM is 73%.

The values above are taken from patent US20060079696A1, “Substituted compounds derived from N-(benzyl)phenylacetamide, preparation and uses” (GENFIT, priority 2004, published 2006).
